According to publication PMC12526156, “Optimization of the Macrocyclic Tetrapeptide [D-Trp]CJ-15,208 to Prevent Stress-Induced Relapse of Cocaine-Seeking Behavior” (Molecules, 2025):
Converted amounts (≈) assume the structure as drawn. Where two headings read alike, the source gives them in different places. Where a SMILES comes first, the peptide text is derived from it. [ ]: non-standard residue; d: D form. The star is where a group is joined. dPhe(3-Me) = Cc1cccc(C[C@@H](N)C(=O)O)c1; For = O=C*

Key:
human MOR = molecular target: T1, human MOR (Homo sapiens, UniProt P35372); test: biochemical; type: binding
T1 construct: expressed in transfected cells

CNS KORs = CNS KORs (Mus musculus, UniProt P33534); test: 55 °C WWTW assay, antagonism of centrally administered U50,488 (30 nmol, i.c.v.); details: 2.5 h pretreatment; for antagonism of CNS KORs: 30 mg/kg, p.o. (9: 10 mg/kg, p.o.)
C57BL/6J mice [1] = test: 55 °C warm-water tail-withdrawal assay, antinociception; type: in vivo, mouse; details: p.o. dose response; significant only first 10 min at high doses
Experimental: For intracerebroventricular administration, peptides were dissolved in DMSO at a concentration of 20 mM (100 nmol/5 µL), then diluted to test doses in a final vehicle solution of 50%DMSO/50% saline (0.9%). For all other testing (for oral administration), peptides were made fresh each day for testing in a final vehicle solution of 10% DMSO/10% Solutol/80% saline (0.9%).
Intracerebroventricular injections were made directly into the lateral ventricle according to the modified steps detailed previously. The volume of all i.c.v. injections was 5 μL, using a 10 μL Hamilton microliter syringe. The mouse was lightly anesthetized with isoflurane, an incision was made in the scalp, and the injection was made 2 mm lateral and 2 mm caudal to bregma at a depth of 3 mm.
The dose response of analogs 3, 6, 9 and 14 were also assessed following administration of one of up to four additional oral (p.o.) doses (1–30 mg/kg).

DOR = DOR (Mus musculus, UniProt P32300); test: 55 °C WWTW assay, antagonism of the DOR-selective agonist SNC80; details: 3 or 4 30 mg/kg, p.o., 9 10 mg/kg, 2.5 h before SNC-80 100 nmol, i.c.v.
hKOR [2] = molecular target: T2, hKOR (Homo sapiens, UniProt P41145); test: KOR cAMP assay using GloSensor-22F, antagonist mode (vs 10 nM U50,488); type: cell-based
Excerpt: A piggy-Bac (PB) transposon/transposase system was utilized to allow for the stable integration of the GloSensor-22F cAMP sensor (Promega, Madison, WI, USA) gene into genomic TTAA sites in Chinese hamster ovary cells already stably expressing the hKOR. The pFastBac hyperPB plasmid vector, which codes for the piggy-Bac transposon/transposase system, was utilized and was a kind gift from Dr. John Lueck. The multicistronic expression cassette developed for our experiments consisted of a CMV promoter driving constitutive expression of GloSensor-22F cAMP sensor, followed by an internal ribosome entry site (IRES) to drive the expression of codon-optimized HygR-P2A-mScarlet (hygromycin resistance gene and mScarlet separated by a 2A self-cleaving peptide element). To clone the expression cassette onto the pFastBac vector, the CMV promoter and GloSensor-22F were PCR amplified from pGloSensor-22F cAMP Plasmid (Promega), the IRES sequence was PCR amplified from pLVX-CMV-Galpha-oA ONE-GO (a gift from Dr. Mikel Garcia-Marcos, Addgene plasmid #189732), the HygR-P2A-mScarlet sequence was a kind gift from Dr. Lueck, and a bGH-poly(A) termination sequence was PCR amplified from pcDNA3.1(+). The pFastBac vector was linearized via overnight digestion with CspCI at 37 °C, which cuts between two inverted terminal repeat (ITR) sequences, and the corresponding backbone and all PCR fragments were gel purified and assembled via Gibson assembly using the Gibson Assembly MasterMix (New England Biolabs, Ipswich, MA, USA). The resulting pFastBac CMV GloSensor-22F IRES HygR-P2A-mScarlet bGH plasmid was transformed into NEB Stable Competent E. coli (New England Biolabs), miniprepped using the E.Z.N.A. Plasmid DNA Mini Kit (Omega Bio-Tek, Norcross, GA, USA), and sequence verified by nanopore whole-plasmid sequencing (Eurofins Genomics, Louisville, KY, USA).
3.0 × 10^6 hKOR-CHO cells were plated on a 6 cm dish and incubated for four h at 37 °C and 5% CO2 in DMEM (Corning Mediatech, Manassas, VA, USA) supplemented with 5% FBS (Corning Mediatech), 1% Penicillin/Streptomycin (Gibco, Waltham, MA, USA). The cells were then transfected with 2.0 μg pFastBac CMV GloSensor-22F IRES HygR-P2A-mScarlet bGH using PEI as a transfection reagent. The following day, transfected cells were reseeded onto a 10 cm dish at a density of 5.0 × 10^5 cells and 600 μg/mL hygromycin B (Gold Bio, St. Louis, MO, USA) was added to the culture media. Cells were cultured under selection antibiotics for seven days, and the selection process was monitored by the increase in abundance of mScarlet positive cells via epifluorescence microscopy.
Following the selection period, KOR-CHO-GLO cells were maintained at 37 °C and 5% CO2 in DMEM supplemented with 5% FBS, 1% Penicillin/Streptomycin and 300 μg/mL hygromycin B to reduce the likelihood of CMV promoter silencing. On the day of the assay, cells were detached with 0.05% trypsin (Gibco) and counted, then centrifuged (1000× g, 5 min) and resuspended in assay buffer (1xPBS, 0.1% glucose, 0.5 mM MgCl2) containing 4 mM D-luciferin substrate (Gold Bio) at approximately 2 million cells/mL. 25 μL of cells (~50,000/well) were seeded onto poly L-lysine-coated white 96-well flat bottom plates (Greiner Bio-One, Kremsmünster, Austria)) and returned to the incubator for 60 min. Following incubation, cells were allowed to equilibrate to room temperature protected from light (10–15 min). Initial luminescence readings (at least 10 cycles) were collected for each well using a FLUOstar Omega v.6.2 plate reader (BMG Labtech, Ortenberg, Germany), after which the plate was removed. Prepared 4x treatments of drug (25 μL) were added to appropriate wells followed by 50 μL of 20 μM forskolin (AmBeed, Buffalo Grove, IL, USA) before the plate was returned to the reader and luminescence measured until final plateau levels were achieved (20–30 min). Assays were performed in duplicate and repeated at least three times.

[3] = Kinetic aqueous solubility; type: physicochemical; details: 1% DMSO, pH 7.4
Excerpt: Table A1 Stability of [D-Trp]- and [D-Phe^4]CJ-15,208 and selected analogs in human (HLMs) and mouse liver microsomes (MLMs)^1. and kinetic aqueous solubility. | column: Solubility ^2 / (µM)

[4] = Metabolic stability in mouse liver microsomes; type: in vitro ADME; details: 1 mg protein/mL; for half-life at 1 µM / microsomal CLint at 1 µM: mouse liver microsomes
Experimental: (§1) Evaluation of the metabolic stability of the macrocyclic tetrapeptides by human and mouse liver microsomes was performed by Curia Global (Buffalo, NY, USA). […]

[5] = Metabolic stability in human liver microsomes; type: in vitro ADME; details: 1 mg protein/mL; for half-life at 1 µM / microsomal CLint at 1 µM: human liver microsomes
Experimental: as §1

hKOR [6] = molecular target: T2, hKOR; test: Competition binding, [3H]U69,593, hKOR-CHO membranes
C57BL/6J mice [7] = test: Stress-induced reinstatement of extinguished cocaine conditioned place preference
hKOR [8] = molecular target: T2, hKOR; test: KOR cAMP assay using GloSensor-22F, agonist mode (KOR-CHO-GLO cells); type: cell-based; details: read-out: KOR Efficacy (%)
MOR = MOR (Mus musculus, UniProt P42866); test: 55 °C WWTW assay, antagonism of the MOR-preferring agonist morphine; details: 3 or 4 30 mg/kg, p.o., 9 10 mg/kg, 2.5 h before morphine 10 mg/kg, i.p.
C57BL/6J mice [9] = system: C57BL/6J mice; design: method as in PMID 23425081; details: cited from earlier work
KOR = molecular target: KOR; design: method as in PMID 37765026; details: cited from earlier work
[10] = [3H]DAMGO, human MOR, ± S.E.M., three independent experiments, read-out: MOR Ki
[11] = 1 µM compound, 37 °C, read-out: MLM t1/2
[12] = 1 µM compound, 37 °C, read-out: HLM t1/2
[13] = [3H]U69,593, human KOR, ± S.E.M., three independent experiments, read-out: KOR Ki
[14] = p.o. once daily for two days, 1.5 h prior to FSS

## O=Cn1cc(C[C@H]2NC(=O)[C@H](Cc3ccccc3)NC(=O)[C@H]3CCCN3C(=O)[C@H](Cc3ccccc3)NC2=O)c2ccccc21 [Analog 3, [D-Trp(formamide)]CJ-15,208] (cyclo(F[dP]F[dW](For)))
Human MOR; [10]
  Ki: 90 ± 14 nM
CNS KORs
  doses giving significant antagonism of CNS KORs: 30 mg/kg, p.o.
  doses not producing significant antagonism of CNS KORs: 1–10 mg/kg, p.o.
  antagonism of CNS KORs: significant antagonism
C57BL/6J mice [1]
  antinociception: < 20%
DOR
  effect on antinociceptive effects of SNC80: no significant effect
hKOR [2]
  IC50: 49 ± 5.4 nM
[3]
  solubility kinetic: 4.6 µM (≈ 2.79 µg/mL)
[4]; [11]
  half-life at 1 µM: 1.1 min
[4]; read-out: MLM CLint
  microsomal CLint at 1 µM: 607 µL/min/mg
[5]; [12]
  half-life at 1 µM: 2.8 min
[5]; read-out: HLM CLint
  microsomal CLint at 1 µM: 244 µL/min/mg
hKOR [6]; MOR Ki/KOR Ki
  Selectivity (MOR Ki/KOR Ki): 41
hKOR [6]; [13]
  Ki: 2.2 ± 0.15 nM
C57BL/6J mice [7]; [14]
  doses not preventing stress-induced reinstatement of cocaine CPP: 10 mg/kg
  doses preventing stress-induced reinstatement of cocaine CPP: 30 mg/kg
C57BL/6J mice [7]; vs 60 mg/kg, p.o.
  fold lower dose for significant reduction of stress-induced reinstatement than [D-Trp]CJ-15,208: 2 fold
hKOR [8]
  Emax at 10 µM: 9.2 ± 4.9%
MOR
  effect on antinociceptive effects of morphine: no significant effect

## Cc1cccc(C[C@H]2NC(=O)[C@H](Cc3ccccc3)NC(=O)[C@H]3CCCN3C(=O)[C@H](Cc3ccccc3)NC2=O)c1 [Analog 14, [D-Phe(m-Me)^4]CJ-15,208] (cyclo(F[dP]F[dPhe(3-Me)]))
Human MOR; [10]
  Ki: 130 ± 11 nM
CNS KORs
  antagonism of CNS KORs: ineffective
C57BL/6J mice [1]
  antinociception: < 20%
hKOR [2]
  IC50: 320 ± 67 nM
[3]
  solubility kinetic: 19 µM (≈ 10.5 µg/mL)
[4]; microsomes, 1 µM compound, 37 °C, read-out: MLM t1/2
  half-life: 1.5 min
[4]; microsomes, read-out: MLM CLint
  microsomal CLint: 467 µL/min/mg
[5]; microsomes, 1 µM compound, 37 °C, read-out: HLM t1/2
  half-life: 4.1 min
[5]; microsomes, read-out: HLM CLint
  microsomal CLint: 170 µL/min/mg
hKOR [6]; MOR Ki/KOR Ki
  Selectivity (MOR Ki/KOR Ki): 5
hKOR [6]; [13]
  Ki: 26 ± 3 nM
hKOR [8]
  Emax at 10 µM: 0.74 ± 5.7%

## O=C1N[C@H](Cc2c[nH]c3ccccc23)C(=O)N[C@@H](Cc2ccccc2)C(=O)N2CCC[C@@H]2C(=O)N[C@H]1Cc1ccccc1 [Analog 1, cyclo[Phe-D-Pro-Phe-D-Trp]] (cyclo(F[dP]F[dW]))
Human MOR
  Ki: 58 ± 7.5 nM
C57BL/6J mice [9]
  dose required to prevent stress-induced reinstatement: 60 mg/kg, p.o.
hKOR [2]
  IC50: 66 ± 11 nM
[3]
  solubility kinetic: 23 µM (≈ 13.3 µg/mL)
[4]; [11]
  half-life at 1 µM: 2.6 min
[4]; read-out: MLM CLint
  microsomal CLint at 1 µM: 269 µL/min/mg
[5]; [12]
  half-life at 1 µM: 5.5 min
[5]; read-out: HLM CLint
  microsomal CLint at 1 µM: 127 µL/min/mg
KOR
  Ki: 21.8 nM
hKOR [6]
  Ki: 6.9 ± 1.1 nM
  Selectivity (MOR Ki/KOR Ki): 8
hKOR [8]
  Emax at 10 µM: 16 ± 2.4%
